The values that follow come from PubChem BioAssay (NCI).

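Values below derive from 48-hour exposures of cells grown in 96-well plates, with endpoints linearly interpolated between the two concentrations bracketing the appropriate inhibition level. TGI marks complete inhibition of growth.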 Some results are limits rather than exact numbers.

Among the test systems are HOP-18 NSCLC; DMS 114 small cell lung; RXF-631 renal; LXFL 529 NSCLC; DMS 273 small cell lung; XF 498 CNS; M19-MEL melanoma.
Holding throughout (experiment): inhibition of tumour cell growth, NCI panel, 48 h

For `CC1=C(C(=O)NCc2ccccc2)C(c2ccccc2[N+](=O)[O-])C(C(=O)NCc2ccccc2)=C(C)N1`, the TGI in the experiment with HOP-18 NSCLC is 35.1 µM; in the experiment with DMS 114 small cell lung it was 29.8 µM; in the experiment with RXF-631 renal, 29.2 µM; with LXFL 529 NSCLC it was 23.1 µM; in the experiment with DMS 273 small cell lung, 25.4 µM; with XF 498 CNS, 31.9 µM. The molecule further gave a TGI with M19-MEL melanoma of 23.9 µM.
With `COC(=O)C1=C(CO)C2C=CC1C2` (stereo unspecified), the TGI in the experiment with HOP-18 NSCLC, in the experiment with RXF-631 renal, with LXFL 529 NSCLC, in the experiment with DMS 273 small cell lung, with XF 498 CNS and in the experiment on M19-MEL melanoma was over 100 µM in each case.
For `COc1ccc(/C=C2\CCC(C)(CN(C)C)C2=O)cc1` (stereo unspecified), the TGI with HOP-18 NSCLC, with DMS 114 small cell lung, with RXF-631 renal, with LXFL 529 NSCLC, with DMS 273 small cell lung and in the experiment on XF 498 CNS was over 100 µM in each case. In the experiment with M19-MEL melanoma, this molecule came in with a TGI of over 100 µM.
`N#CCCN(c1ccc(-c2nnc(NC(=O)CNNC(=O)CC(=O)Nc3ccccc3)s2)cc1)S(=O)(=O)c1ccccc1`: the TGI in the experiment with HOP-18 NSCLC, with DMS 114 small cell lung, with RXF-631 renal, with LXFL 529 NSCLC, with DMS 273 small cell lung and in the experiment on XF 498 CNS was over 100 µM in each case. The molecule also registered a TGI in the experiment on M19-MEL melanoma of over 100 µM.
On to `CC12CCC[C@@](C)(C(=O)OC3OC(CO)C(O)C(O)C3O)[C@H]1CCC13CC4CC(OC4(CO)[C@H]1O)[C@@H]23` (stereo partly specified), for which the TGI is over 100 µM in the experiment on HOP-18 NSCLC; 87.9 µM in the experiment on DMS 114 small cell lung; over 100 µM with RXF-631 renal; over 100 µM in the experiment on LXFL 529 NSCLC; over 100 µM in the experiment on DMS 273 small cell lung; over 100 µM in the experiment with XF 498 CNS. Besides, the TGI in the experiment with M19-MEL melanoma is over 100 µM.
Turning to `CC1OC(OCC2COC(O)(Oc3c(-c4ccc(O)c(O)c4)oc4cc(O)cc(O)c4c3=O)C(O)C2O)C(O)C(O)C1O` (stereo unspecified), the TGI with HOP-18 NSCLC, in the experiment on DMS 114 small cell lung, with RXF-631 renal, in the experiment on LXFL 529 NSCLC, with DMS 273 small cell lung and with XF 498 CNS was over 100 µM in each case. In the experiment with M19-MEL melanoma, this molecule had a TGI of over 100 µM.
